Measurements as given in paper PMC5429603, “Discovery and characterization of verinurad, a potent and specific inhibitor of URAT1 for the treatment of hyperuricemia and gout” (Scientific Reports, 2017).

Columns and labels:
[1] = test system: healthy human volunteers; assay: Verinurad study in humans (sUA and FEUA after a single dose); format: in vivo; details: single 40 mg dose
Description: The study was conducted in accordance with Good Clinical Practice and the Declaration of Helsinki and with independent ethics committee (Welwyn Clinical Pharmacology Ethics Committee, Hatfield, UK) approval. Informed consent was obtained from all subjects before participating in the study. […] Urine samples were collected from 0 to 6 hours, 6 to 12 hours and 12 to 24 hours post dosing to measure the urinary excretion of uric acid and creatinine. FEUA was calculated using equation 1:1 FEUA=([urineuricacid]×[serumcreatinine])/([serumuricacid]×[urinecreatinine]) To determine time-weighted average plasma verinurad concentrations (TWA), plasma verinurad levels were first measured from serial plasma collections.

[2] = target: T1, rat URAT1 r-N35S (Rattus norvegicus, UniProt Q3ZAV1, N35S); assay: URAT1 activity assay, r-N35S; format: cell-based
T1 construct: expressed in transfected cells; host or cells: HEK-293T
Excerpt: (§1) Human URAT1 (GenBank BC053348.1, Homo sapiens SLC22A12), rat URAT1 (NCBI NM_001034943.1, Rattus norvegicus Slc22a12) and human OAT4 (NCBI NM_018484.2, Homo sapiens SLC22A11) genes were purchased from Origene Technologies, Inc. and subcloned into pCMV6/neo using NotI. Where indicated, controls transfections used pCMV6/neo. Mutants were produced by site-directed mutagenesis using the QuikChange Lightning Multi Site-Directed Mutagenesis Kit (Agilent Technologies). […] Mutagenic primer sequences are provided in ref. [15] and mutagenic primer sequences for previously unreported mutants shown in Supplementary Table 1. All constructs used in this study were untagged. Human OAT1 was purchased from Fisher Scientific (catalog # MHS1010–7508183 in pSPORT6, NCBI NM_153276.2, Homo sapiens SLC22A6).
(§2) HEK-293T cells were maintained in DMEM/high glucose/L-glutamine/HEPES supplemented with 1 mM sodium pyruvate (Life Technologies) and 10% FBS (PAA Laboratories) at 37 °C in 5% CO2. […]
(§3) URAT1 and OAT4 activity assays were performed in assay buffer consisting of 25 mM MES pH 5.5 (from a 1 M MES solution [Sigma] adjusted to pH 5.5 with sodium hydroxide), 125 mM sodium gluconate, 4.8 mM potassium gluconate, 1.2 mM monobasic potassium phosphate, 1.2 mM magnesium sulfate, 1.3 mM calcium gluconate and 5.6 mM glucose. […] Each treatment was measured in triplicate.

[3] = target: T2, human URAT1 h-S27P (Homo sapiens, UniProt Q96S37, S27P); assay: URAT1 activity assay, h-S27P; format: cell-based
T2 construct: expressed in transfected cells; host or cells: HEK-293T
Excerpt: as §1, §2, §3

[4] = target: T3, rat URAT1 (Rattus norvegicus, UniProt Q3ZAV1); assay: URAT1 activity assay, rat URAT1; format: cell-based; details: rat URAT1 wild type; 14C-uric acid; read-out: IC50, inhibition of transport activity
T3 construct: host or cells: HEK-293T
T3 sequence (Q3ZAV1 1-553): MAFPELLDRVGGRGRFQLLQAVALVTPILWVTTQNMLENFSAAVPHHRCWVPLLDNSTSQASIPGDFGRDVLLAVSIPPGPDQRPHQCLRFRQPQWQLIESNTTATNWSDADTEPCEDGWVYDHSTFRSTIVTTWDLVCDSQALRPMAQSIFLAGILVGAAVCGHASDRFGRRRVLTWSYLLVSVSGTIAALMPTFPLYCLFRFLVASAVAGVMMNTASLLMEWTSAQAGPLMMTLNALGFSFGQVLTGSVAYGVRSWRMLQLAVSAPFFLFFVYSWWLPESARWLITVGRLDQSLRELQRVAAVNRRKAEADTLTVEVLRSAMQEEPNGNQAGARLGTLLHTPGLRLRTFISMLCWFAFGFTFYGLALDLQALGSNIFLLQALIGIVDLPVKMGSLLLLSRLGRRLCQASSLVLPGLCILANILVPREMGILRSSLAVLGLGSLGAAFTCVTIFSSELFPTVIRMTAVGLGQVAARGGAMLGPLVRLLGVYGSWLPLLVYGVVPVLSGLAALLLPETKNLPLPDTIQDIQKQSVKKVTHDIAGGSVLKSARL
Description: (§4) HEK-293T cells were maintained in DMEM/high glucose/L-glutamine/HEPES supplemented with 1 mM sodium pyruvate (Life Technologies) and 10% FBS (PAA Laboratories) at 37 °C in 5% CO2. To express URAT1, OAT4 or OAT1, plasmids were reverse transfected into HEK-293T cells. DNA (10 µg) was mixed with 30 µl of DreamFect Gold (Boca Scientific) in 2 ml OptiMem (Life Technologies). After 20 minutes, 18 ml of media containing 2 × 10^7 cells in suspension was added and mixed, and 200 µl per well were plated onto white clear-bottomed poly-D-lysine coated 96-well plates (BD Biosciences). The cells were assayed the following day.
as §3, with “glucose. URAT1 inhibitors were serially diluted into assay buffer and added to the cells for 5 minutes prior to addition of substrate. URAT1-expressing cells were incubated with 100 µM ^14C-uric acid for 10 minutes and OAT4-expressing cells were incubated with 20 µM carboxyfluorescein (Life Technologies, Inc.) for 5 minutes.” for “glucose.”

[5] = target: T4, human URAT1 h-R477K (Homo sapiens, UniProt Q96S37, R477K); assay: URAT1 activity assay, h-R477K; format: cell-based
T4 construct: expressed in transfected cells; host or cells: HEK-293T
T4 sequence (Q96S37 1-553 R477K): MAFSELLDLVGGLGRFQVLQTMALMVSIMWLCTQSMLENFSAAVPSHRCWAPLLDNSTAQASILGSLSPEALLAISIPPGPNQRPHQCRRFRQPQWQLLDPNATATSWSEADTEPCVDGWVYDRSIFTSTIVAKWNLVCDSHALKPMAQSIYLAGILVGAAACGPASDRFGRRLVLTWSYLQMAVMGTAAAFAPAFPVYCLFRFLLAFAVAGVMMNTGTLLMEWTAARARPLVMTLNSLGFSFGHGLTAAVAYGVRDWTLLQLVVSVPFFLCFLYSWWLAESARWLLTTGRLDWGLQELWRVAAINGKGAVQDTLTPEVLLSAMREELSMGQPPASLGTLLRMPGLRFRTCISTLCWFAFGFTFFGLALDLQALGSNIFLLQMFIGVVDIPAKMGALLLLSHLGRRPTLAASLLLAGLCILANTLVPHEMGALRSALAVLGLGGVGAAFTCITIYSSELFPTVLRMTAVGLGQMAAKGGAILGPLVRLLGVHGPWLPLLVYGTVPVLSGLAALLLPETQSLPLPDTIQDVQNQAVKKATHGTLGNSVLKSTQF
Excerpt: as §1, §4
URAT1 and OAT4 activity assays were performed in assay buffer consisting of 25 mM MES pH 5.5 (from a 1 M MES solution [Sigma] adjusted to pH 5.5 with sodium hydroxide), 125 mM sodium gluconate, 4.8 mM potassium gluconate, 1.2 mM monobasic potassium phosphate, 1.2 mM magnesium sulfate, 1.3 mM calcium gluconate and 5.6 mM glucose. URAT1 inhibitors were serially diluted into assay buffer and added to the cells for 5 minutes prior to addition of substrate. URAT1-expressing cells were incubated with 100 µM ^14C-uric acid for 10 minutes and OAT4-expressing cells were incubated with 20 µM carboxyfluorescein (Life Technologies, Inc.) for 5 minutes. Cells were then washed three times in 25 mM MES pH 5.5/125 mM sodium gluconate, and solubilized in Ultima Gold (Perkin Elmer) prior to liquid scintillation counting. Each treatment was measured in triplicate.

[6] = target: T5, human URAT1 h-S35N (Homo sapiens, UniProt Q96S37, S35N); assay: URAT1 activity assay, h-S35N; format: cell-based
T5 construct: expressed in transfected cells; host or cells: HEK-293T
Excerpt: as §1, §2, §3

[7] = TM1 point mutant, read-out: Verinurad affinity (IC50)

T2 sequence (Q96S37 whole entry S27P): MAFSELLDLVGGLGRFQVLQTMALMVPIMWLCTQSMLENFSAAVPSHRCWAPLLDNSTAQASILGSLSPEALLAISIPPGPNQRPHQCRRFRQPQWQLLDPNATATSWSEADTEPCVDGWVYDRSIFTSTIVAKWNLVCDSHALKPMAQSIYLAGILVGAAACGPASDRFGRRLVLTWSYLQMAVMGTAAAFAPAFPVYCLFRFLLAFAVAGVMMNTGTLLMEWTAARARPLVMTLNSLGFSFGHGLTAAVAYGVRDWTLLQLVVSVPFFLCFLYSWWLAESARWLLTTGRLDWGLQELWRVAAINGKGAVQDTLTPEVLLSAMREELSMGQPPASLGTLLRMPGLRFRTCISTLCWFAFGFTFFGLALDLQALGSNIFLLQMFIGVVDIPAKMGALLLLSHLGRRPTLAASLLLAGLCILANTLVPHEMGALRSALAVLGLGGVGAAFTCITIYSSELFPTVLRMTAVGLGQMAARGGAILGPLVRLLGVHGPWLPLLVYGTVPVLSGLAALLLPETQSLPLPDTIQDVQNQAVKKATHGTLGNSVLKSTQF
T1 sequence (Q3ZAV1 whole entry N35S): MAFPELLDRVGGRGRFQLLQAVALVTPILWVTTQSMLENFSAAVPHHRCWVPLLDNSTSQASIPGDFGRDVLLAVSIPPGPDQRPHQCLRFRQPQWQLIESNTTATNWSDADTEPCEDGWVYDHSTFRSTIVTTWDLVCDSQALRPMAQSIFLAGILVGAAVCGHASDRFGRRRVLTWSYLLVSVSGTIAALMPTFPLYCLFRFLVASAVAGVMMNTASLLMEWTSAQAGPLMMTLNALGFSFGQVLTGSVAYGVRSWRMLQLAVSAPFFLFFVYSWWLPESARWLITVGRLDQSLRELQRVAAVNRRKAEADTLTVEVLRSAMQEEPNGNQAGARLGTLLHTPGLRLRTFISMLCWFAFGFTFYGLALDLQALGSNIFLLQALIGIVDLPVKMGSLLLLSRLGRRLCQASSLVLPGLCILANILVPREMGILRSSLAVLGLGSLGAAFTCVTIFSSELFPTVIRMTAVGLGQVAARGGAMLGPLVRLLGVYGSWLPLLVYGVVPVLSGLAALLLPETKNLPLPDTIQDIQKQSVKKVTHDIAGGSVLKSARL
T5 sequence (Q96S37 whole entry S35N): as the sequence (Q96S37 whole entry S27P) above, with P27S, S35N counted along it

fold higher affinity relative to rat URAT1 [2]: 4 fold | IC50 [2, 7]: 10000 ± 1500 nM | fold decrease in affinity ([3]; h-S27P vs human URAT1): 1.6 fold | IC50 ([3]; h-S27P, TM1 point mutant, read-out: Verinurad affinity (IC50)): 39 ± 9 nM | IC50 [4]: 41000 ± 2700 nM | fold reduced affinity compared to human URAT1 ([5]; h-R477K): 9 fold | IC50 ([5]; h-R477K binding site point mutant): 230 nM | fold lower affinity relative to human URAT1 [6]: 14 fold | IC50 [6, 7]: 360 ± 150 nM
SMILES: CC(C)(Sc1ccncc1-c1ccc(C#N)c2ccccc12)C(=O)O [Verinurad, 2-((3-(4-cyanonaphthalen-1-yl)pyrindin-4-yl)thio)-2-methylpropanoic acid]
time sUA is maintained below pretreatment levels [1]: 24 h | EC50 ([1]; healthy human volunteers, time-weighted average plasma concentration, read-out: half-maximal effective concentration in plasma for increase in FEUA): 22 nM
